Patent US9828375B2, “4-position substituted pyrazolopyrimidine derivative, and use thereof in drug preparation” (Guangxi Wuzhou Pharmaceuticals (Group) Co., Ltd., priority 2012, dated 2017)
Where two headings read alike, the source gives them in different places.

How the values were obtained:
VEGFR2 = VEGFR2 (Homo sapiens, UniProt P35968); test: Kinase inhibition activity test, isotope labeling (γ-33P-ATP): VEGFR2; assay type: biochemical; conditions: for IC50: ATP 90 μM, read-out: VEGFR2 IC50 value (inhibitory activity value); for Activity inhibition rate VEGFR2 (h) / inhibition at 10 µM: test compound at a concentration of 10 μM; for inhibition at 10 µM: read-out: Activity inhibition rate VEGFR2 (h)
Experimental: (§1) The purpose of this experiment was to test the inhibitory activity of the compound of the invention for in vitro kinase with the isotope labeling method (the γ phosphate group on ATP was labeled). In this experiment, the in vitro activity inhibition of such kinases as FLT3, VEGFR2, FLT1, FLT4, RET, c-RAF, B-RAF, c-KIT, PDGFα, PDGFβ, FGFR2, FGFR1, EphA2, EphB2, SRC, ABL, ALK and Met was tested respectively. Staurosporine was reference molecule (or referred to as positive control). The kinase inhibition activity of the test compound was expressed by half-inhibitory concentration (IC50) or the kinase activity inhibition rate of the test compound at a concentration of 10 μM. The IC50 value could be obtained by calculating the kinase activity inhibition rate of the test compound at different concentrations.
(§2) 20 mM 3-(N-morpholinyl)propanesulfonic acid (MOPS); 1 mM ethylenediaminetetraacetic acid (EDTA), 0.01% Brij 35 (Brij-35), 5% glycerol, 0.1% mercaptoethanol, 1 mg/mL bovine serum albumin (BSA), 10 mM manganous dichloride solution (MnCl2), 0.1 mg/mL glutamic acid/tyrosine (4:1) polypeptide (poly(Glu, Tyr)4:1), 50 μM EAIYAAPFAKKK (substrate of FLT3), 0.33 mg/mL myelin basic protein (substrate of VEGFR2), 250 μM KKKSPGEYVNIEFG (substrate of FLT1(h)), 500 μM GGEEEEYFELVKKKK (substrate of FLT4(h)), 250 μM KKKSPGEYVNIEFG (substrate of RET), 0.66 mg/mL myelin basic protein (substrate of C-RAF), 250 μM GGMEDIYFEFMGGKKK (substrate of c-Kit), 250 μM GGMEDIYFEFMGGKKK (substrate of PDGFα), 250 μM KKKSPGEYVNIEFG (substrate of FGFR1), […] GGEEEEYFELVKKKK (substrate of SRC), 50 μM EAIYAAPFAKKK (substrate of ABL), 250 μM KKKSPGEYVNIEFG (substrate of ALK), 250 μM KKKSPGEYVNIEFG (substrate of Met(h)), 10 mM magnesium acetate and γ-^33 P-ATP solution, stop buffer (3% phosphate buffer), washing buffer (75 mM phosphate solution), methanol, Filtermat A membrane, FLT3, VEGFR2, FLT3, VEGFR2, FLT1, FLT4, RET, c-RAF, B-RAF, c-KIT, PDGFRα, PDGFRβ, FGFR2, FGFR1, EphA2, EphB2, SRC, ABL, ALK, Met and other kinases, and the test compounds.
(§3) Buffers (8 mM MOPS with pH value of 7.0, 0.2 mM EDTA and 10 mM MnCl2), (5-10 mU) kinases to be tested (FLT3, VEGFR2, FLT1, FLT4, RET, c-RAF, B-RAF, c-KIT, PDGFRα, PDGFRβ, FGFR2, FGFR1, EphA2, EphB2, SRC, ABL, ALK and Met), substrates of kinases to be tested (refer to experimental materials), 10 mM magnesium acetate and γ-^33 P-ATP solution, and test compounds at different concentrations were added to a reaction tube orderly. […] Reaction was terminated with 5 μL 3% phosphate buffer finally, and 10 μL reaction solution was titrated to the Filtermat A membrane; solution was washed for 3 times with 75 mM phosphate solution with each time lasting 5 minutes, and then washed once with methanol. Finally, the Filtermat A membrane was dried, and scintillation counting was performed on the membrane, with scintillation count reflecting the phosphorylation degree of the substrates, so that the activity inhibition of kinase could be characterized.

Abl/Abl (T315I)(h) = test: Kinase inhibition activity test, isotope labeling: Abl; assay type: biochemical, human; conditions: test compound at a concentration of 10 μM
Experimental: as §1, §2, §3

[1] = test system: human leukemia cell line Jurkat; test: In vitro tumor cell proliferation inhibition (MTT): Jurkat; assay type: cell-based; conditions: 72 hours
Text: (§4) The purpose of the experiment was to test the inhibition activity of the compounds of the invention for in vitro human tumor cell proliferation by the methyl thiazolyl tetrazolium (MTT) colorimetry.
(§5) Main reagents: RPMI-1640, fetal bovine serum, pancreatin, etc. were purchased from Gibco BRL Company (Invitrogen Corporation, USA) and IMDM medium that was purchased from American Type Culture Collection (ATCC). Methyl thiazolyl tetrazolium (MTT) and dimethyl sulfoxide (DMSO) were products from Sigma Company (USA). Pyrazolopyrimidine derivatives were composed by the inventor. During in vitro experiment, 100% DMSO was prepared into 10 mM storage solution, the solution was stored in a refrigerator at −20° C. for future use, and was diluted to the required concentration with complete culture solution before use.
(§6) Cell line and culture: Human leukemia cell line MV4-11, Jurkat, K562, human thyrophyma cell line TT, human gastric carcinoma cell line MKN-45, human malignant melanoma cell lines A375 and A875, human pancreatic carcinoma cell line panc-1, human cervical carcinoma cell line HELA, human colorectal carcinoma cell line HCT116, etc. were purchased from American type culture collection and were preserved by this laboratory. All leukemia cell lines (except MV4-11), gastric carcinoma cell lines and thyrophyma cell lines were cultured in RPMI-1640 complete medium containing 10% fetal bovine serum, 100 U/mL penicillin and 100 μg/mL streptomycin at 37° C. in 5% CO2. The remaining cell lines were cultured in DMEM complete medium containing 10% fetal bovine serum (containing 20% MV4-11 cell), 100 U/mL penicillin and 100 µg/mL streptomycin at 37° C. in 5% CO2.
(§7) Cell suspension with cell concentration of 1-2×10^4/mL was adjusted with the complete cell medium and inoculated in a 96-well plate, with each well filled with 200 μl cell suspension that was cultured overnight. On the next day, supernatant was sucked and abandoned (supernatant was sucked upon centrifugation of suspension cells), and then cells were processed with test compounds at gradient concentrations respectively. Meanwhile, a negative control group free from drug and a solvent control group with equal volume were set, and the DMSO concentration was 0.1%. Each dose group was provided with three wells and cultured at 37° C. in 5% CO2. After 72 hours, 20 μl 5 mg/mL MTT reagent was added to each well, and cultured for another 2 to 4 hours, the supernatant was abandoned; 150 μL DMSO was added to each well again, vibrated and mixed evenly for 15 minutes; the absorbance (A) values (proportional to living cell amount) were determined with a microplate reader (λ=570 nm) and averaged. […] Experiment was repeated for 3 times at least. Experimental data were expressed with means, data statistics were tested by t, and P<0.05 means that difference has a statistical significance. The cell proliferation inhibition effects of all compounds as follows are expressed by IC50 or inhibition rate.

[2] = test system: human colorectal carcinoma cell line HCT116; test: In vitro tumor cell proliferation inhibition (MTT): HCT116; assay type: cell-based
Text: as §4, §5, §6, §7

[3] = test system: human thyrophyma cell line TT; test: In vitro tumor cell proliferation inhibition (MTT): TT; assay type: cell-based
Text: as §4, §5, §6, §7

[4] = 72 hours, read-out: Proliferation inhibition activity (IC50) HCT 116
[5] = Homo sapiens, HCT-116, 72 hours

VEGFR2, sequence (P35968 20-1356): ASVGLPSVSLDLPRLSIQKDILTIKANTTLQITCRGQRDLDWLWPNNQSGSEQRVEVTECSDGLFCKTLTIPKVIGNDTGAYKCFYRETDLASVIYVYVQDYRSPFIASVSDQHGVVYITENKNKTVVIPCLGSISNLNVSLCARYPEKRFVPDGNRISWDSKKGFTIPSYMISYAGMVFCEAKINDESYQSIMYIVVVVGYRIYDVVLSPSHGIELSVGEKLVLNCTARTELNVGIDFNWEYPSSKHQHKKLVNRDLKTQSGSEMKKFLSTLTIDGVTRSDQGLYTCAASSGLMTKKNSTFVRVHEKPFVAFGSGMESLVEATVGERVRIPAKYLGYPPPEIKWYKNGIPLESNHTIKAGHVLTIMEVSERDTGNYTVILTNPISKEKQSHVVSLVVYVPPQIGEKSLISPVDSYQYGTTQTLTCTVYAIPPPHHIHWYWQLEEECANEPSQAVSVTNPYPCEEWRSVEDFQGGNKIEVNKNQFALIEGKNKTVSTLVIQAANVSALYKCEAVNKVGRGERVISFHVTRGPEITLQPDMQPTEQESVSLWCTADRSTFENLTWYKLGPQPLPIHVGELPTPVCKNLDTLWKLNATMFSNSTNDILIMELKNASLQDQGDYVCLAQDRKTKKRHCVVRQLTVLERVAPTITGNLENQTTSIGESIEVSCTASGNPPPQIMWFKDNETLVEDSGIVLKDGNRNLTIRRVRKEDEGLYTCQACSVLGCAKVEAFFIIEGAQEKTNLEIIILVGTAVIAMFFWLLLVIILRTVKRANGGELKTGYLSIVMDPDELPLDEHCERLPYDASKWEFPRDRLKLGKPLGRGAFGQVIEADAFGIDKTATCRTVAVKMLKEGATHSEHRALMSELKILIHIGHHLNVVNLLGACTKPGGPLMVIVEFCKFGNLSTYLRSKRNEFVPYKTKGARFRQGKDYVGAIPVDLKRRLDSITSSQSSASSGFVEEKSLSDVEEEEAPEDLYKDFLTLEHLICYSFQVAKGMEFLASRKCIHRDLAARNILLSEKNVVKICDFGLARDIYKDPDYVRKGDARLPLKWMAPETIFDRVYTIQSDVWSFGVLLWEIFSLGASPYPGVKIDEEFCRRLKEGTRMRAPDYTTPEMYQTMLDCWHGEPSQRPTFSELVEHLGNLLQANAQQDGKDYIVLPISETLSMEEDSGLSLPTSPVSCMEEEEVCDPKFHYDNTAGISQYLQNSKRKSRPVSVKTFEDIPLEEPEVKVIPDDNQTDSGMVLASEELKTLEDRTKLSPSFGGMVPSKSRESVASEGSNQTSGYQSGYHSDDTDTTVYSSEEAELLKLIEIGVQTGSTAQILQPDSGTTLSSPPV

Row | Compound | IC50 (VEGFR2) [µM] | Activity inhibition rate VEGFR2 (h) (VEGFR2) [%] | Activity inhibition rate Abl/Abl (T315I)(h) (Abl/Abl (T315I)(h)) [%] | IC50 [1] [µM] | IC50 [2, 4] [µM] | inhibition at 10 µM (VEGFR2) [%] | IC50 ([1]; Homo sapiens, Jurkat) [µM] | IC50 [2, 5] [µM] | other results
1 | CC(C)c1cccc(NC(=O)Nc2ccc(Oc3ncnc4[nH]ncc34)c(F)c2)c1 [4a-7, 1-(4-((1H-pyrazolopyrimidine-4-yl)oxy)-3-fluorophenyl)-3-(3-isopropylphenyl)urea] | 0.032 | 100 | 60 | < 50 | < 50 | – | – | – | –
2 | CC(C)n1ncc2c(Oc3ccc(NC(=O)Nc4cc(C(C)(C)C)on4)cc3)ncnc21 [5a-4, 1-(5-tert-butylisoxazol-3-yl)-3-(4-(1-isopropyl-(1H-pyrazolopyrimidine-4-yl)oxy)phenyl)urea] | – | – | – | – | – | > 90 | < 50 | < 50 | IC50 ([3]; Homo sapiens, 72 h): 9.89 µM
3 | O=C(Nc1ccccc1)Nc1ccc(Oc2ncnc3[nH]ncc23)cc1 [4a-15, 1-(4-((1H-pyrazolopyrimidine-4-yl)oxy)phenyl)-3-phenylurea] | 0.028 | 100 | 99 | < 50 | < 50 | – | – | – | –
4 | C[C@H](NC(=O)Nc1ccc(Oc2ncnc3[nH]ncc23)cc1)c1ccccc1 [4a-18, (S)-1-(4-((1H-pyrazolopyrimidine-4-yl)oxy)phenyl)-3-(1-phenethyl)urea] | – | 95 | 45 | 3 to 10 | < 50 | – | – | – | –
5 | C[C@@H](NC(=O)Nc1ccc(Nc2ncnc3[nH]ncc23)cc1)c1ccccc1 [4b-2, (R)-1-(4-(1H-pyrazolopyrimidine-4-amido)phenyl)-3-(1-phenethyl)urea] | – | – | – | – | – | 88 | < 50 | < 50 | –
6 | O=C(Nc1ccc(Sc2ncnc3[nH]ncc23)cc1)Nc1ccc(C(F)(F)F)cc1 [4c-1] | – | – | >30 | – | – | 100 | < 50 | – | –
7 | O=C(Nc1ccc(Oc2ncnc3[nH]ncc23)c(F)c1)Nc1ccc(Cl)c(C(F)(F)F)c1 [4a-10, 1-(4-((1H-pyrazolopyrimidine-4-yl)oxy)-3-fluorophenyl)-3-(4-chloro-3-(trifluoromethyl)phenyl)urea] | 0.021 | 100 | 67 | 9.93 | < 50 | – | – | – | –
8 | 1-(4-((1H-pyrazolopyrimidine-4-yl)oxy)-3-fluorophenyl)-3-(3-trifluoromethoxy)phenyl)urea [4a-8] | 0.029 | 100 | 34 | < 50 | 5.7 | – | – | – | –
9 | C[C@H](NC(=O)Nc1ccc(Nc2ncnc3[nH]ncc23)cc1)c1ccccc1 [4b-4] | – | – | – | < 50 | < 50 | – | – | – | Activity inhibition rate VEGFR2 (h) (VEGFR2; 10 µM): 94%
10 | CC(C)(C)c1cc(NC(=O)Nc2ccc(Oc3ncnc4[nH]ncc34)c(F)c2)no1 [4a-31] | 0.011 | 100 | >50 | 6.1 | – | – | – | – | IC50 ([3]; 72 hours): 0.943 µM
11 | COc1ccc(NC(=O)Nc2ccc(NC(=O)N3C=NC=C4NNC=C43)cc2)cc1 [4b-6, 1-(4-(1H-pyrazolopyrimidine-4-amido)phenyl)-3-(4-methoxyphenyl)urea] | – | – | – | – | – | 95 | < 50 | < 50 | –
12 | O=C(Nc1ccc(Oc2ncnc3[nH]ncc23)cc1)Nc1ccc(N2CCOCC2)cc1 [4a-16, 1-(4-((1H-pyrazolopyrimidine-4-yl)oxy)phenyl)-3-(4-morpholinylphenyl)urea] | – | – | – | – | – | 91 | < 50 | < 50 | –
13 | COc1cccc(NC(=O)Nc2ccc(Nc3ncnc4[nH]ncc34)cc2)c1 [4b-3] | – | – | – | – | – | 96 | < 50 | < 50 | –
14 | Cc1cc(C)c(NC(=O)Nc2ccc(NC(=O)N3C=NC=C4NNC=C43)cc2)c(C)c1 [4b-7, 1-(4-(1H-pyrazolopyrimidine-4-amido)phenyl)-3-(2,4,6-trimethylphenyl)urea] | – | – | – | – | – | 92 | < 50 | < 50 | –
15 | 1-(4-((1H-pyrazolopyrimidine-4-yl)oxy)phenyl)-3-(methylcyclohexyl)urea [4a-20] | – | 64 | 19 | < 50 | < 50 | – | – | – | –
16 | O=C(Nc1ccc(Oc2ncnc3[nH]ncc23)cc1)Nc1cc(C(F)(F)F)cc(C(F)(F)F)c1 [4a-12, 1-(4-((1H-pyrazolopyrimidine-4-yl)oxy)phenyl)-3-(3,5-bis(trifluoromethyl)phenyl)urea] | 0.024 | 100 | 78 | < 50 | < 50 | – | – | – | –
17 | C[C@@H](NC(=O)Nc1ccc(Oc2ncnc3[nH]ncc23)cc1)c1ccccc1 [4a-19, (R)-1-(4-((1H-pyrazolopyrimidine-4-yl)oxy)phenyl)-3-(1-phenethyl)urea] | – | 92 | 21 | – | < 50 | – | – | – | –
18 | O=C(Nc1ccc(NC(=O)N2C=NC=C3NNC=C32)cc1)Nc1ccc(Cl)c(C(F)(F)F)c1 [4b-5, 1-(4-(1H-pyrazolopyrimidine-4-amido)phenyl)-3-(4-chloro-3-(trifluoromethyl)phenyl)urea] | – | – | – | – | – | 97 | – | – | IC50 ([3]; Homo sapiens, 72 h): 9.48 µM
19 | O=C(Nc1cccc(Nc2ncnc3[nH]ncc23)c1)Nc1ccc(F)c(Cl)c1 [4b-1] | – | – | – | – | – | 93 | < 50 | < 50 | –
